Measurements taken from US10617680B2 (CELGENE QUANTICEL RESEARCH, INC., priority 2017, dated 2020).

Target: CBP (Homo sapiens (Human), UniProt Q92793)
Assay: In vitro CBP inhibition (AlphaScreen, biotinylated H4-tetraacetyl peptide)
Assay type: binding
Conditions: AlphaScreen, Table 29; read-out: CBP IC50
Summary of the method: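 His-tagged CBP expressed in E. coli (50 nM final) incubated with biotinylated H4K5/8/12/16(Ac) peptide (20 nM final) in 50 mM HEPES pH 7.3, 10 mM NaCl, 0.25 mM TCEP, 0.1% BSA, 0.005% Brij-35, 0.4% DMSO, 20 min at room temp.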

Sequence of CBP (Q92793 1081-1197): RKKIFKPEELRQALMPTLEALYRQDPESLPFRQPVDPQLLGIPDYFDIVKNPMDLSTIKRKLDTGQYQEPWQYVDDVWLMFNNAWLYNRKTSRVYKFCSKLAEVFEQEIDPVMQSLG

Row | IC50 | Compound
1 | < 500 nM | CN(C)c1ncc(-c2cc(=O)n(C)cc2-c2cnn(-c3cccc(Cl)c3C#N)c2)cn1 [Example 328, 2-chloro-6-(4-(4-(2-(dimethylamino)pyrimidin-5-yl)-1-methyl-6-oxo-1,6-dihydropyridin-3-yl)-1H-pyrazol-1-yl)benzonitrile]
2 | < 500 nM | Cn1cc(-c2cnn(-c3cccc(Cl)c3C#N)c2)c(-c2cnc(NC3CCCC3)nc2)cc1=O [Example 329, 2-chloro-6-(4-(4-(2-(cyclopentylamino)pyrimidin-5-yl)-1-methyl-6-oxo-1,6-dihydropyridin-3-yl)-1H-pyrazol-1-yl)benzonitrile]
3 | < 500 nM | Cn1cc(-c2cnn(-c3cccc(Cl)c3C#N)c2)c(-c2cnc(N3CCCC3)nc2)cc1=O [Example 330, 2-chloro-6-(4-(1-methyl-6-oxo-4-(2-(pyrrolidin-1-yl)pyrimidin-5-yl)-1,6-dihydropyridin-3-yl)-1H-pyrazol-1-yl)benzonitrile]
4 | < 500 nM | CC(C)Nc1ncc(-c2cc(=O)n(C)cc2-c2cnn(-c3cccc(Cl)c3C#N)c2)cn1 [Example 331, 2-chloro-6-(4-(4-(2-(isopropylamino)pyrimidin-5-yl)-1-methyl-6-oxo-1,6-dihydropyridin-3-yl)-1H-pyrazol-1-yl)benzonitrile]
5 | < 500 nM | CNc1ncc(-c2cc(=O)n(C)cc2-c2cnn(-c3cccc(Cl)c3C#N)c2)cn1 [Example 332, 2-chloro-6-(4-(1-methyl-4-(2-(methylamino)pyrimidin-5-yl)-6-oxo-1,6-dihydropyridin-3-yl)-1H-pyrazol-1-yl)benzonitrile]
6 | < 500 nM | CCNc1ncc(-c2cc(=O)n(C)cc2-c2cnn(-c3cccc(F)c3C#N)c2)cn1 [Example 333, 2-[4-[4-[2-(ethylamino)pyrimidin-5-yl]-1-methyl-6-oxo-3-pyridyl]pyrazol-1-yl]-6-fluoro-benzonitrile]
7 | < 500 nM | CN(C)c1ncc(-c2cc(=O)n(C)cc2-c2cnn(-c3cccc(F)c3C#N)c2)cn1 [Example 334, 2-[4-[4-[2-(dimethylamino)pyrimidin-5-yl]-1-methyl-6-oxo-3-pyridyl]pyrazol-1-yl]-6-fluoro-benzonitrile]
8 | < 500 nM | Cn1cc(-c2cnn(-c3cccc(Cl)c3C#N)c2)c(-c2cnc(N3CCOCC3)nc2)cc1=O [Example 335, 2-chloro-6-(4-(1-methyl-4-(2-morpholinopyrimidin-5-yl)-6-oxo-1,6-dihydropyridin-3-yl)-1H-pyrazol-1-yl)benzonitrile]
9 | < 500 nM | Cn1cc(-c2cnn(-c3cccc(F)c3C#N)c2)c(-c2cnc(N3CCCC3)nc2)cc1=O [Example 336, 2-fluoro-6-[4-[1-methyl-6-oxo-4-(2-pyrrolidin-1-ylpyrimidin-5-yl)-3-pyridyl]pyrazol-1-yl]benzonitrile]
10 | < 500 nM | CN1CCN(c2ncc(-c3cc(=O)n(C)cc3-c3cnn(-c4cccc(Cl)c4C#N)c3)cn2)CC1 [Example 337, 2-chloro-6-(4-(1-methyl-4-(2-(4-methylpiperazin-1-yl)pyrimidin-5-yl)-6-oxo-1,6-dihydropyridin-3-yl)-1H-pyrazol-1-yl)benzonitrile]
11 | < 500 nM | Cn1cc(-c2cnn(-c3cccc(Cl)c3C#N)c2)c(-c2cnc(N3CCCCC3)nc2)cc1=O [Example 338, 2-chloro-6-(4-(1-methyl-6-oxo-4-(2-(piperidin-1-yl)pyrimidin-5-yl)-1,6-dihydropyridin-3-yl)-1H-pyrazol-1-yl)benzonitrile]
12 | < 500 nM | CC(C)Nc1ccc(-c2cc(=O)n(C)cc2-c2cnn(-c3cccc(Cl)c3C#N)c2)cn1 [Example 339, 2-chloro-6-[4-[4-[6-(isopropylamino)-3-pyridyl]-1-methyl-6-oxo-3-pyridyl]-pyrazol-1-yl]benzonitrile]
13 | < 500 nM | Cn1cc(-c2cnn(-c3cccc(Cl)c3C#N)c2)c(-c2ccc(NC3CCCC3)nc2)cc1=O [Example 340, 2-chloro-6-(4-(6-(cyclopentylamino)-1′-methyl-6′-oxo-1′,6′-dihydro-[3,4′-bipyridin]-3′-yl)-1H-pyrazol-1-yl)benzonitrile]
14 | < 500 nM | CNc1ccc(-c2cc(=O)n(C)cc2-c2cnn(-c3cccc(Cl)c3C#N)c2)cn1 [Example 341, 2-chloro-6-(4-(1′-methyl-6-(methylamino)-6′-oxo-1′,6′-dihydro-[3,4′-bipyridin]-3′-yl)-1H-pyrazol-1-yl)benzonitrile]
15 | < 500 nM | CCNc1ccc(-c2cc(=O)n(C)cc2-c2cnn(-c3cccc(Cl)c3C#N)c2)cn1 [Example 342, 2-chloro-6-(4-(6-(ethylamino)-1′-methyl-6′-oxo-1′,6′-dihydro-[3,4′-bipyridin]-3′-yl)-1H-pyrazol-1-yl)benzonitrile]
16 | < 500 nM | Cn1cc(-c2cnn(-c3cccc(F)c3C#N)c2)c(-c2ccc(NC3CCCC3)nc2)cc1=O [Example 343, 2-(4-(6-(cyclopentylamino)-1′-methyl-6′-oxo-1′,6′-dihydro-[3,4′-bipyridin]-3′-yl)-1H-pyrazol-1-yl)-6-fluorobenzonitrile]
17 | < 500 nM | CCNc1ccc(-c2cc(=O)n(C)cc2-c2cnn(-c3cccc(F)c3C#N)c2)cn1 [Example 344, 2-(4-(6-(ethylamino)-1′-methyl-6′-oxo-1′,6′-dihydro-[3,4′-bipyridin]-3′-yl)-1H-pyrazol-1-yl)-6-fluorobenzonitrile]
18 | < 500 nM | CN(C)c1ccc(-c2cc(=O)n(C)cc2-c2cnn(-c3cccc(Cl)c3C#N)c2)cn1 [Example 345, 2-chloro-6-{4-[6-(dimethylamino)-1′-methyl-6′-oxo-1′,6′-dihydro-[3,4′-bipyridine]-3′-yl]-1H-pyrazol-1-yl}benzonitrile]
19 | < 500 nM | Cn1cc(-c2cnn(-c3cccc(F)c3C#N)c2)c(-c2ccc(NCC3CC3)nc2)cc1=O [Example 346, 2-(4-{6-[(cyclopropylmethyl)amino]-1′-methyl-6′-oxo-1′,6′-dihydro-[3,4′-bipyridine]-3′-yl}-1H-pyrazol-1-yl)-6-fluorobenzonitrile]
20 | < 500 nM | CN(C)c1ccc(-c2cc(=O)n(C)cc2-c2cnn(-c3cccc(F)c3C#N)c2)cn1 [Example 347, 2-{4-[6-(dimethylamino)-1′-methyl-6′-oxo-1′,6′-dihydro-[3,4′-bipyridine]-3′-yl]-1H-pyrazol-1-yl}-6-fluorobenzonitrile]
21 | < 500 nM | Cn1cc(-c2cnn(-c3cccc(Cl)c3C#N)c2)c(-c2ccc(NCC3CC3)nc2)cc1=O [Example 348, 2-chloro-6-(4-{6-[(cyclopropylmethyl)amino]-1′-methyl-6′-oxo-1′,6′-dihydro-[3,4′-bipyridine]-3′-yl}-1H-pyrazol-1-yl)benzonitrile]
22 | < 500 nM | Cn1cc(-c2cnn(-c3cccc(Cl)c3C#N)c2)c(-c2ccc(N3CCCC3)nc2)cc1=O [Example 349, 2-chloro-6-[4-[1-methyl-6-oxo-4-(6-pyrrolidin-1-yl-3-pyridyl)-3-pyridyl]pyrazol-1-yl]benzonitrile]
23 | < 500 nM | Cn1cc(-c2cnn(-c3cccc(F)c3C#N)c2)c(-c2ccc(N3CCCC3)nc2)cc1=O [Example 350, 2-fluoro-6-[4-[1-methyl-6-oxo-4-(6-pyrrolidin-1-yl-3-pyridyl)-3-pyridyl]pyrazol-1-yl]benzonitrile]
24 | < 500 nM | CC(C)Nc1ccc(-c2cc(=O)n(C)cc2-c2cnn(-c3cccc(F)c3C#N)c2)cn1 [Example 351, 2-fluoro-6-(4-(6-(isopropylamino)-1′-methyl-6′-oxo-1′,6′-dihydro-[3,4′-bipyridin]-3′-yl)-1H-pyrazol-1-yl)benzonitrile]
